In experiment [1] the test system is SKBR3 cells. Put plainly: Degradation assay evaluated by immunofluorescence staining, SKBR3. In kind it is cell-based. The note with it: Homo sapiens, SK-BR-3, SKBR3, 6 h. The procedure:
(§1) One day prior to treatment with compounds, black 96 well plates were coated with fibronectin (0.2 μg/ml in PBS) for 45 min at room temperature and subsequently washed with PBS. CAL-51 or SKBR3 cells were seeded at 30K cells/well (1001) and incubated overnight at 37° C. whereafter compounds were added reaching indicated concentrations. 6 h after treatment the medium was removed, cells were washed with PBS and fixed with 10% formalin for 20 mins at room temperature. Following two PBS washes (150 μl), cells were permeabilized in 0.1% Triton X-100 in PBS for 8 mins at room temperature and subsequently washed again twice with PBS. Cells were blocked thereafter with 1% BSA in PBS for 45 mins. Primary antibody was diluted in blocking buffer and incubated with the cells overnight at 4° C. After three washes with PBS, cells were incubated with secondary antibody for 1 h at RT, washed and subsequently images were taken on an Operetta High-Content Imager.
(§2) For the determination of the DC50, a custom algorithm implemented in the PerkinElmer image analysis software Harmony-Acapella® was used.

In another experiment the test system is WSU-DLCL2 cells. Put plainly: Cell proliferation (Cell Titer Glow), WSU-DLCL2. The note with it: Homo sapiens, WSUDLCL2; IG compounds, cell killing, 72 h. In kind it is cell-based. The procedure: (§3) Exemplary isoindolinone-glutarimide (IG) compounds of Table 1a, 1b and 1c were prepared and characterized according to the Examples herein. Certain exemplary IG compounds of(Table 1a were tested for their effects in inhibiting cellular proliferation, including CAL1 WSU-DLCL2, NCI-N87 and SKBR3. CAL51 is a human breast adenocarcinoma cell line with triple-negative status for expression of estrogen, progesterone and HER2 receptors. WSU-DLCL2 is a human B-Cell non-Hodgkin lymphoma cell line that expresses high levels of CD22. NCI-N87 is a human epithelial cell line established from a gastric carcinoma; SKBR3 is a human epithelial cell line established from a breast adenocarcinoma; both NCI-N87 and SKBR3 cell lines express high levels of HER2 receptor.
(§4) Exemplary embodiments of the isoindolinone-glutarimide antibody conjugates (IGAC) of Formula I are compiled in Table 3. Assessment of IGAC biological activity and other properties may be conducted according to the methods of Example 102. In some instances, the Cell proliferation dose response IC50 value is an average of repetitive assays. Certain exemplary IGAC were tested for their effects in inhibiting cellular proliferation, including CAL51; WSU-DLCL2, NCI-N87 and SKBR3 cell lines. CAL51 is a human breast adenocarcinoma cell line with triple-negative status for expression of estrogen, progesterone and HER2 receptors. WSU-DLCL2 is a human B-Cell non-Hodgkin lymphoma cell line that expresses high levels of CD22. NCI-N87 is a human epithelial cell line established from a gastric carcinoma; SKBR3 is a human epithelial cell line established from a breast adenocarcinoma; both NCI-N87 and SKBR3 cell lines express high levels of HER2 receptor.
On the day of treatment, 10,000 suspension cells/well were plated in white 96-well plates. Compounds or ADCs were added in a serial-dilution manner reaching the indicated concentrations. Plates were incubated at 37 degrees for 72 h whereafter a 1:10 dilution of Cell Titer Glow was used to measure relative cell numbers after 10 min of incubation at room temperature.

In experiment [2] the test system is CAL51 cells. Kind of experiment: Cell proliferation (Cell Titer Glow), CAL51. It counts as cell-based. The settings on record: Homo sapiens, CAL-51; IG compounds, cell killing, 72 h. As for the experimental part:
as §3, with “receptor. […]” for “receptor.”
(§5) One day prior to treatment with compounds or IGAC, cells were plated in white 96-well plates (SKBR: 3000 cells/well; CAL-51: 4000 cells/well). Compounds or ADCs were added in a serial-dilution manner reaching the indicated concentrations. Plates were incubated at 37 degrees for 96h (ADCs) or 72h (compounds) whereafter a 1:10 dilution of Cell Titer Glow was used to measure relative cell numbers after 10 min of incubation at room temperature.

The test system of experiment [3] is CAL51 cells. Kind of experiment: Degradation assay evaluated by immunofluorescence staining, CAL51. It counts as cell-based, human. The settings on record: Homo sapiens, CAL-51, CAL51, 6 h. The procedure: as §1, §2
A further experiment concerns NCI-N87 cells. Put plainly: Cell proliferation (Cell Titer Glow), NCI-N87. In kind it is cell-based. The settings on record: Homo sapiens, IG compounds, cell killing, 72 h. The procedure:
as §3, §4
One day prior to treatment with compounds or IGAC, cells were plated in white 96-well plates (SKBR: 3000 cells/well; CAL-51: 4000 cells/well). Compounds or ADCs were added in a serial-dilution manner reaching the indicated concentrations. […]
(ATP-based viability assays read luminescence as a measure of living cells.)

Experiment [4] relates to SKBR3 cells. Put plainly: Cell proliferation (Cell Titer Glow), SKBR3. It counts as cell-based. The settings on record: Homo sapiens, SK-BR-3; IG compounds, cell killing, 72 h. The procedure: as §3, with “receptor. […]” for “receptor.”
as §5

In patent US20260335453A1, “ISOINDOLINONE-GLUTARIMIDE ANTIBODY CONJUGATES, AND USES THEREOF” (FIREFLY BIO, INC., priority 2023, published 2026) one finds DC50, Dmax and IC50 data, which are given here for three compounds.

Where only a bound is given, the exact number is not on record here.

Regarding `Cc1ccc(NC(=O)NCc2ccc3c(c2)CN(C2CCC(=O)NC2=O)C3=O)cc1Cl` (centres unmarked) [IG-1, 1-(3-chloro-4-methyl-phenyl)-3-[[2-(2,6-dioxo-3-piperidyl)-1-oxo-isoindolin-5-yl]methyl]urea], the results for the DC50 in the experiment with SKBR3 cells [1] and in the experiment on CAL51 cells [3] were below 0.7 nM and 3.24 ± 2.18 nM, respectively. For the same compound, the values for the Dmax with SKBR3 cells [1] and in the experiment on CAL51 cells [3] were 95.5 ± 4.9% and 101 ± 4.45%, respectively. Besides, the IC50 (commonly the point on the concentration scale where inhibition reaches its midpoint) in the experiment on WSU-DLCL2 cells amounted to 1.23 nM; with CAL51 cells [2], 10.8 nM; in the experiment with NCI-N87 cells it was 1.48 nM; in the experiment with SKBR3 cells [4], 1.77 nM.

In the case of `O=C1CCC(N2Cc3c(ccc(CNC(=O)Nc4cccc(C5(C(F)(F)F)CC5)c4)c3O)C2=O)C(=O)N1` (centres unmarked) [IG-42, 1-((2-(2,6-dioxopiperidin-3-yl)-4-hydroxy-1-oxoisoindolin-5-yl)methyl)-3-(3-(1-(trifluoromethyl)cyclopropyl)phenyl)urea], the DC50 (in general, the concentration at which degradation of the target reaches its halfway point) in the experiment with SKBR3 cells [1] was 2 nM; with CAL51 cells [3] it was below 5.41 nM. The Dmax (usually the greatest extent of degradation seen) in the experiment on SKBR3 cells [1] came out at 88.6%; in the experiment with CAL51 cells [3], 96.1 ± 5.89%. The IC50 in the experiment with WSU-DLCL2 cells worked out at 1.43 nM; in the experiment with CAL51 cells [2] it was 25 nM; in the experiment on NCI-N87 cells, 2.57 nM; in the experiment on SKBR3 cells [4] it was 2.73 nM.

`Cc1ccc(NC(=O)NCc2ccc3c(c2O)CN(C2CCC(=O)NC2=O)C3=O)cc1C(C)C` (centres unmarked) [IG-50]: the DC50 was below 0.645 nM in the experiment with SKBR3 cells [1] and 6.21 nM in the experiment with CAL51 cells [3]. For the same compound, the Dmax with SKBR3 cells [1] was 99.6 ± 0.614%; in the experiment with CAL51 cells [3] it was 105%. Also, the figures for the IC50 in the experiment on WSU-DLCL2 cells, in the experiment with NCI-N87 cells and with SKBR3 cells [4] were 0.75 nM, 1.63 nM and 1.38 nM, respectively.
